Reference: patent US20250099475A1, “METHODS OF TREATING HYPERTENSION BY PERIODIC SUPPRESSION OF ALDOSTERONE SYNTHASE” (Mineralys Therapeutics, Inc., priority 2022, published 2025)
Where two headings read alike, the source gives them in different places.

Experiments:
[1] = Phase 1 part 2 multiple ascending dose: pharmacokinetics; assay type: in vivo, human; settings: for half-life: male, human, plasma, oral
Protocol: A 4-part, Phase 1 randomized, double-blind, placebo-controlled, first-in-human study was performed to determine the safety, tolerability, PK, and PD of single ascending doses (SADs; part 1) and multiple ascending doses (MADs; part 2) of Compound A HBr in healthy participants. The study also assessed whether there were sex (part 3) and age-related (part 4) effects on the PK of a single dose of Compound A HBr. The study was approved by the local independent ethics committee; the BEBO foundation in Assen, Netherlands; and the Central Committee on Research Involving Human Subjects in The Hague, Netherlands; and conducted according to the provisions of the Declaration of Helsinki. Written informed consent was obtained from each study participant before conducting any protocol-related procedures.
In part 2, Compound A HBr or placebo was administered to a total of 36 healthy Caucasian men aged 19 to 54 years (inclusive) in 3 cohorts of 12 participants each. In each cohort, 9 participants were randomized to receive multiple doses of Compound A HBr and 3 participants were randomized to receive matching placebo. The participants received daily doses in the fed state from Day 1 to Day 7. The doses were administered in an ascending order per cohort. Progression to the next dose level and dose selection were based on available data from part 1 and the preceding dose cohort in part 2 (safety, tolerability, and PD data [up to 48 hours post-final dose] and available PK data [up to 24 hours post-final dose] from a minimum of 10 participants [Compound A HBr n≥7] in the preceding dose cohort). The final dose levels of Compound A HBr for part 2 were 40, 120, and 360 mg. An ACTH challenge test was performed on Day −2 and on Day 6 to evaluate Compound A HBr selectivity for aldosterone synthesis. Plasma concentrations of aldosterone and 11-deoxycortisol and serum concentrations of cortisol and 11-DOC were measured pre-ACTH dose and 30 and 60 minutes post-ACTH dose on Day −2 and Day 6.
Plasma PK parameters were derived by non-compartmental analysis using WinNonlin® (version 6.3). Dose proportionality was assessed using the power model with AUC0-∞, AUC0-last, and Cmax for part 1 (SAD) and with AUC0-last, AUC0-∞, AUC0-τ, and Cmax for part 2 (MAD). A linear model (ln(Y)=α+β×ln(X), where Y is the pharmacokinetic parameter and X is the dose) was used to fit the power model, after log-transformation of the parameters. Dose proportionality was concluded if the 95% confidence interval (CI) for slope (β) included the value 1.
An analytical method for the determination of Compound A in human plasma (dipotassium ethylenediaminetetraacetic acid [K2-EDTA]) and human urine using solid-phase extraction and high-performance liquid chromatography with mass spectrometric detection was successfully validated over the concentration range 0.1000 ng/mL (lower limit of quantification) to 100.0 ng/mL prior to initiation of the clinical trial. […] For all other analytes, validated quantitative measurement methods were used.

[2] = Phase 1 parts 3 and 4: sex- and age-related effects on PK; assay type: in vivo, human; settings: single 100-mg dose; not statistically significant
Protocol: Part 3 of the study evaluated the sex-related effects on the safety, tolerability, and PK of Compound A HBr. In 1 cohort of 8 healthy Caucasian women aged 20 to 35 years (inclusive), 6 participants were randomized to receive a single 100-mg dose of Compound A HBr and 2 participants were randomized to receive matching placebo. Compound A HBr or placebo was administered in the fasted state. The results were compared with those in the cohort at the same dose as in Part 1.
Part 4 of the study evaluated the age-related effects on safety, tolerability, and PK of Compound A HBr. In 1 cohort of 8 healthy Caucasian men aged 68 to 80 years, 6 participants were randomized to receive a single 100-mg dose of Compound A HBr and 2 participants were randomized to receive matching placebo. Compound A HBr or placebo were administered in the fasted state. The results were compared with those in the cohort at the same dose as in Part 1.
A linear model was used to analyze log-transformed AUC and Cmax with sex or age as fixed effects. Difference in least square means (LSM) and corresponding 90% CI were back-transformed to obtain the estimates of geometric mean ratios and their CI for females vs. males and ≥65 years vs. <65 years participants.

[3] = 13-week repeat-dose oral toxicology study in rats; assay type: in vivo, rat; settings: both sexes, Sprague Dawley, rat, in vivo, oral, 13-week, read-out: no observed adverse effect level (NOAEL)
Protocol: (§1) The toxicologic profile of Compound A was assessed in several toxicology studies, including 13-week repeat-dose oral studies in Sprague Dawley rats and cynomolgus monkeys, a standard battery of genotoxicity studies, preliminary embryo-fetal development studies in rats and rabbits, and in vitro and in vivo phototoxicity studies. Rats and monkeys were selected for the general toxicology studies on the basis of pharmacology and metabolism data that indicated these animals would have metabolism similar to that of humans. Studies were performed in accordance with GLP regulations.
(§2) Doses in the 13-week toxicology studies were 0, 50, 150, 450 (female), and 600 (male) mg/kg/d in Sprague Dawley rats. In cynomolgus monkeys (females and males), the doses were 0, 10, 30, and 100 mg/kg/d. Hematoxylin-and-eosin-stained sections (nominal thickness of approximately 5 μm) were prepared from the formalin-fixed paraffin-embedded organs/tissues of all animals in the toxicology studies.

Sprague Dawley rats = experiment: 13-week repeat-dose oral toxicology study in rats; assay type: in vivo, rat; settings: 13-week daily dosing, doses ≥150 mg/kg/d
Protocol: as §1, §2

For `CC(=O)N[C@H]1CC[C@H](NC(=O)CN2CCN(c3nncc(-c4ccc(C)cc4)n3)CC2)CC1` [Compound A HBr], which “AUC0-24, mean (SD)” value ([1]; 40 mg once daily, Day 1, fed) is on record?
The value was 1574 (282) ng × h/mL.

And the “Cmax, mean (SD)” value ([1]; 40 mg once daily, Day 1, fed)?
The value was 252 (64) ng/mL.

What about the “Tmax, median and range” value ([1]; 40 mg once daily, Day 1, fed) of the same molecule?
The value was 3 (0.5-5) h.

What about the “AUC0-24, mean (SD)” value ([1]; 40 mg once daily, Day 7, fed) of the same molecule?
Its value is 1795 (312) ng × h/mL.

And the “Cmax, mean (SD)” value ([1]; 40 mg once daily, Day 7, fed)?
The value was 365 (46) ng/mL.

What about the “T 1/2, mean (SD)” value ([1]; 40 mg once daily, Day 7, fed) of the same molecule?
The value was 9 (2) h.

And the “Tmax, median and range” value ([1]; 40 mg once daily, Day 7, fed)?
The value was 1.5 (0.5-5) h.

And the “AUC0-24, mean (SD)” value ([1]; 120 mg once daily, Day 1, fed)?
The value was 4876 (1024) ng × h/mL.

And the “Cmax, mean (SD)” value ([1]; 120 mg once daily, Day 1, fed)?
The value was 887 (291) ng/mL.

And the “Tmax, median and range” value ([1]; 120 mg once daily, Day 1, fed)?
The value was 3 (0.5-8) h.

And the “AUC0-24, mean (SD)” value ([1]; 120 mg once daily, Day 7, fed)?
The value was 5816 (1315) ng × h/mL.

And the “Cmax, mean (SD)” value ([1]; 120 mg once daily, Day 7, fed)?
Its value is 1039 (343) ng/mL.

What about the “T 1/2, mean (SD)” value ([1]; 120 mg once daily, Day 7, fed) of the same molecule?
Its value is 12 (2) h.

What about the “Tmax, median and range” value ([1]; 120 mg once daily, Day 7, fed) of the same molecule?
The value was 2.5 (1-4)^ h.

What about the “AUC0-24, mean (SD)” value ([1]; 360 mg once daily, Day 1, fed) of the same molecule?
The value was 19335 (3111) ng × h/mL.

And the “Cmax, mean (SD)” value ([1]; 360 mg once daily, Day 1, fed)?
Its value is 3220 (1171) ng/mL.

And the “Tmax, median and range” value ([1]; 360 mg once daily, Day 1, fed)?
The value was 3 (2-5) h.

What about the “AUC0-24, mean (SD)” value ([1]; 360 mg once daily, Day 7, fed) of the same molecule?
Its value is 21825 (3955) ng × h/mL.

And the “Cmax, mean (SD)” value ([1]; 360 mg once daily, Day 7, fed)?
Its value is 3812 (1282) ng/mL.

And the “T 1/2, mean (SD)” value ([1]; 360 mg once daily, Day 7, fed)?
The value was 9 (2) h.

And the “Tmax, median and range” value ([1]; 360 mg once daily, Day 7, fed)?
The value was 2 (1-3) h.

What about the half-life ([1]; 40 mg once daily, Day 1, fed, read-out: T 1/2, mean (SD) (converted)) of the same molecule?
The half-life was 5 h.

And the half-life ([1]; 120 mg once daily, Day 1, fed, read-out: T 1/2, mean (SD) (converted))?
The half-life was 4 h.

And the half-life ([1]; 360 mg once daily, Day 1, fed, read-out: T 1/2, mean (SD) (converted))?
The half-life was 4 h.

And the half-life ([1]; once-daily dosing, read-out: t1/2 on Day 7 (converted))?
Its half-life is ~10 h.

What about the “Steady state achieved by” value ([1]; once-daily 40 to 360 mg) of the same molecule?
Its value is ~5 days.

What about the “AUC higher in female than in male participants” value [2] of the same molecule?
Its value is 19%.

And the “AUC lower in men aged ≥65 years vs <65 years” value [2]?
The value was ~12%.

What about the “Cmax higher in female than in male participants” value [2] of the same molecule?
The value was 25%.

What about the “Cmax lower in men aged ≥65 years vs <65 years” value [2] of the same molecule?
Its value is “approximately 14%”.

Which results are given for `CC(=O)N[C@H]1CC[C@H](NC(=O)CN2CCN(c3nncc(-c4ccc(C)cc4)n3)CC2)CC1` [Compound A]?
NOAEL at 13 weeks [3]: 50 mg/kg/day; histopathological findings (Sprague Dawley rats): vacuolation of zona fasciculata cells and hypertrophy of zona glomerulosa cells in the adrenal glands
